The text below walks through data of PubChem BioAssay (NCI).

Some test systems named below: MDA-MB-435; PC-3 prostate; SNB-75 CNS; XF 498 CNS.
What all share (assay): inhibition of tumour cell growth, NCI panel, 48 h

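Cultured in 96-well plates, cells were exposed to test compound for 48 hours across five concentrations. TGI is the concentration that stops growth completely.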

`NC(CCOCCP(=O)(O)O)C(=O)O` (centres undefined): the TGI in the test with MDA-MB-435, in the test on PC-3 prostate and in the test on SNB-75 CNS was > 100 µM each time.
In the test on XF 498 CNS, `COc1c2c(c3ccccc3c1O)C1C=CC2C1` (centres undefined) came in with a TGI of 27.9 µM.
